BindingDB's records for doi:10.1161/01.cir.102.23.2836 (Nih, 2000)
“And” between values parts separate entries of the source, which are not always exact repeats. Identical values can stand only once.

How the values were obtained:
[1] = target: T1, 5-hydroxytryptamine receptor 2C (Rattus norvegicus, UniProt P08909)
T1 sequence (P08909 whole entry): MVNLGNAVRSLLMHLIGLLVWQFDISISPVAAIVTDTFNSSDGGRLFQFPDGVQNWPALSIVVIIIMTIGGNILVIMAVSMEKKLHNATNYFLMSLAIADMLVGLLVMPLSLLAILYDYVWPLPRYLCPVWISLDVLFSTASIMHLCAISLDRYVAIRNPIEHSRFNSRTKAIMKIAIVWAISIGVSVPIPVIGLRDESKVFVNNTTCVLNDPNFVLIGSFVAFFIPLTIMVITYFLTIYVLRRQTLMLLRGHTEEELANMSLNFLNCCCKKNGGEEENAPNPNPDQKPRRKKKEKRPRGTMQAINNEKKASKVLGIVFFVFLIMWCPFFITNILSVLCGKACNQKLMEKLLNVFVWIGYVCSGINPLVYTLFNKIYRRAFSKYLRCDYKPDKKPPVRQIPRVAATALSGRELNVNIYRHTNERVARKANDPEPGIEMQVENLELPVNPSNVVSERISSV

[2] = target: 5-hydroxytryptamine receptor 2B (Homo sapiens, UniProt P41595)
Chain of 5-hydroxytryptamine receptor 2B (P41595 whole entry): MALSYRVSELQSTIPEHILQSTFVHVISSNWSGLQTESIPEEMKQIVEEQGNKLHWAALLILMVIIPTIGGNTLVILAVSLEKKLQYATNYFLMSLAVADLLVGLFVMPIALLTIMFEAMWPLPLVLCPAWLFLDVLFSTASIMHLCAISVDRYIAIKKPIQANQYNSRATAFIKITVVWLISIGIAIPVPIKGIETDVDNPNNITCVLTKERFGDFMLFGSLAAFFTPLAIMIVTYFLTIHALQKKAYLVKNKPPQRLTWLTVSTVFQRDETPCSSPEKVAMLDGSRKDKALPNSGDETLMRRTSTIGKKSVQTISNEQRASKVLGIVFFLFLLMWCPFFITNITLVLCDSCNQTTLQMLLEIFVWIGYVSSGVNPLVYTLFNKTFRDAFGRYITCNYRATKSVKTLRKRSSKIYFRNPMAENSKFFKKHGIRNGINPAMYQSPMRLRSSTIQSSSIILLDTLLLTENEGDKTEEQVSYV

Structure (SMILES) | Ki [1] | Ki [2]
Clc1cccc(N2CCNCC2)c1 [mCPP] | 0.059 µM | 
CC(C)(N)Cc1ccccc1 [2-methyl-1-phenylpropan-2-amine] | > 10 µM | > 10 µM
CN1C[C@H](C(=O)N[C@]2(C)O[C@@]3(O)[C@@H]4CCCN4C(=O)[C@H](Cc4ccccc4)N3C2=O)C=C2c3cccc4[nH]cc(c34)C[C@H]21 [12'-hydroxy-2'-methyl-5'alpha-(phenylmethyl)ergotaman-3',6',18-trione] | 0.012 µM | 0.003 µM
C[C@H](N)Cc1cccc(C(F)(F)F)c1 [Norfenfluramine (+)] | 0.557 µM and 0.324 µM and 0.814 µM | 0.0521 µM and 0.0112 µM and 0.0478 µM
CCNC(C)Cc1cccc(C(F)(F)F)c1 (stereo not drawn) [NSC_3337] | 3.18 µM and 6.25 µM and 3.42 µM | 
CC[C@@H](CO)NC(=O)[C@@H]1C=C2c3cccc4[nH]cc(c34)C[C@H]2N(C)C1 [Methylergometrine] |  | 0.00049 µM
NCC[C@H](Oc1ccc(C(F)(F)F)cc1)c1ccccc1 [NORFLUOXETINE] | 0.286 µM | 5.06 µM
CC[C@@H](CO)NC(=O)[C@@H]1C=C2c3cccc4c3c(cn4C)C[C@H]2N(C)C1 | 0.0018 µM | 
O=c1n(CCCN2CCN(c3cccc(Cl)c3)CC2)nc2ccccn12 [2-{3-[4-(3-chlorophenyl)piperazin-1-yl]propyl}[1,2,4]triazolo[4,3-a]pyridin-3(2H)-one] | 0.402 µM | 
